We go through nine molecules from ChEMBL document CHEMBL3232982, “Cytotoxic properties of D-gluco-, D-galacto- and D-manno-configured 2-amino-2-deoxy-glycerolipids against epithelial cancer cell lines and BT-474 breast cancer stem cells” (2014).

The source made the active and inactive calls. The rule behind the calls is not given here. Where only a bound is given, the exact number is not on record here.

A short description of experiment [1]: Cytotoxicity against human JIMT1 cells assessed as reduction cell viability after 48 hrs by MTS assay. The experiment is classed as functional. The settings on record: JIMT-1, 48 h. (In general: Tetrazolium assays rely on reduction of a dye to a coloured formazan, in cell work by metabolically active cells.)
Experiment [2] is described as follows: Cytotoxicity against human MIAPaCa2 cells assessed as reduction cell viability after 48 hrs by MTS assay. It counts as functional. The conditions noted are these: MIA PaCa-2, 48 h.
Experiment [3] deals with BT-549. Briefly: Cytotoxicity against human BT549 cells assessed as reduction cell viability after 48 hrs by MTS assay. It counts as functional. The conditions noted are these: BT-549, 48 h.
The subject of experiment [4] is DU-145. Briefly: Cytotoxicity against human DU145 cells assessed as reduction cell viability after 48 hrs by MTS assay. It counts as functional. The settings on record: DU-145, 48 h.
The test system of experiment [5] is BT-474. Briefly: Cytotoxicity against human BT474 cells assessed as reduction cell viability after 48 hrs by MTS assay. The settings on record: BT-474, 48 h. It counts as functional.
Experiment [6] concerns PC-3. The experiment is described as follows: Cytotoxicity against human PC3 cells assessed as reduction cell viability after 48 hrs by MTS assay. The experiment is classed as functional. The settings on record: PC-3, 48 h.
Experiment [7] relates to BT-474. The experiment is described as follows: Cytotoxicity against human BT474 cells assessed as inhibition of spheroids formation at 10 to 20 uM after 6 days by phase contrast microscopy relative to untreated control. The experiment is classed as functional, cell-based.
Experiment [8] deals with BT-474. The experiment is described as follows: Cytotoxicity against tumorspheres of human BT474 cells assessed as inhibition of cell viability at 10 to 20 uM after 6 days by MTS assay relative to untreated control. The experiment is classed as functional, cell-based.
In experiment [9] the test system is BT-474. Briefly: Cytotoxicity against tumorspheres of human BT474 cells assessed as disintegration of tumorspheres at 5 to 20 uM after 6 days by phase contrast microscopy relative to untreated control. It counts as functional, cell-based.
Experiment [10] concerns BT-474. The experiment is described as follows: Cytotoxicity against human BT474 cells assessed as inhibition of cell viability at 10 to 20 uM after 6 days by MTS assay relative to untreated control. The experiment is classed as functional, cell-based.
Experiment [11] concerns BT-474. The experiment is described as follows: Cytotoxicity against human BT474 cells assessed as cell viability at 20 uM after 6 days by MTS assay relative to untreated control. The experiment is classed as functional. The settings on record: BT-474, 144 h, read-out: Activity.
Experiment [12] relates to BT-474. Briefly: Cytotoxicity against tumorspheres of human BT474 cells assessed as cell viability at 30 uM after 6 days by MTS assay relative to untreated control. The experiment is classed as functional. The settings on record: BT-474, 144 h, read-out: Activity.
For experiment [13], the system named is BT-474. Briefly: Cytotoxicity against human BT474 cells assessed as formation of spheroids with jagged rough edges at 10 to 20 uM after 6 days by phase contrast microscopy relative to untreated control. It counts as functional, cell-based.
The test system of experiment [14] is BT-474. The experiment is described as follows: Cytotoxicity against tumorspheres of human BT474 cells assessed as inhibition of cell viability at 20 uM after 6 days by MTS assay relative to untreated control. The conditions noted are these: BT-474, 144 h. The experiment is classed as functional.

With `CCCCCCCCCCCCCCCCOCC(CS[C@H]1O[C@H](CO)[C@H](O)[C@H](O)[C@H]1N)OC` (some centres undefined), the CC50 – broadly, the concentration that lowers cell viability or growth by half – in experiment [1] is 19.1 µM; in experiment [2] it was 18.8 µM; in [3] it was 18.3 µM; in [4] it was 17.2 µM; in experiment [5], 24.4 µM; in experiment [6], 15 µM.

On to `CCCCCCCCCCCCCCCCOCC(CS[C@@H]1O[C@H](CO)[C@H](O)[C@H](O)[C@H]1N)OC` (some centres undefined), for which the CC50 in experiment [1] is 15.5 µM; in experiment [2] it was 20.2 µM; in [3] it was 22.2 µM; in experiment [4], 18.8 µM; in experiment [5], more than 30 µM; in experiment [6], 24.3 µM.

Consider `CCCCCCCCCCCCCCCCOCC(CO[C@H]1O[C@H](CO)[C@@H](O)[C@H](O)[C@@H]1N)OC` (some centres undefined), for which the CC50 in experiment [1], in [2], in experiment [3], in experiment [4], in [5] and in experiment [6] was more than 30 µM throughout.

As to `CCCCCCCCCCCCCCCCOCC(CO[C@H]1O[C@H](CO)[C@@H](O)[C@H](O)[C@H]1N)OC` (some centres undefined), the CC50 in experiment [1] was found to be 6 µM; in experiment [2] it was 7 µM; in experiment [3], 7 µM; in experiment [4], 7 µM; in experiment [5] it was 6.2 µM; in [6] it was 10.5 µM. For the same molecule, the inhibition entry in [7], in experiment [8] and in experiment [10] was “Active” each time. In addition, in experiment [9], the result was Active.

For the molecule `CCCCCCCCCCCCCCCCOCC(CO[C@H]1O[C@H](CO)[C@H](O)[C@H](O)[C@H]1N)OC` (some centres undefined), the CC50 in [1] worked out at 4.5 µM; in experiment [2], 4.4 µM; in experiment [3] it was 6.3 µM; in experiment [4], 4.7 µM; in experiment [5] it was 6.2 µM; in experiment [6], 8 µM. For the same molecule, the inhibition result in experiment [7], in [8] and in [10] was “Active” each time. Besides, in experiment [9], the outcome was Active.

Take `CCCCCCCCCCCCCCCCCCOCC(COP(=O)([O-])OCC[N+](C)(C)C)OC` (centres undefined) [EDELFOSINE]: the viability at 20 µM in experiment [11] is 55%. In experiment [12], the viability at 30 µM amounted to 45%. Further, the result in experiment [9] was inactive. Also, in experiment [13], the outcome was Active. The inhibition (commonly the relative decrease from the control value, in per cent) at 20 µM in experiment [14] worked out at 30%.

As to `CCCCCCCCCCCCCCCCOCC(CO[C@@H]1O[C@H](CO)[C@@H](O)[C@H](O)[C@H]1N)OC` (some centres undefined), the CC50 in experiment [1] amounted to 9 µM; in [2], 10 µM; in [3] it was 13 µM; in experiment [4], 10 µM; in [5], 8 µM; in [6], 13.5 µM. Also, the inhibition result in experiment [7] and in experiment [10] was “Active” throughout. Moreover, in experiment [9], the outcome was Active.

Regarding `CCCCCCCCCCCCCCCCOCC(CO[C@@H]1O[C@H](CO)[C@H](O)[C@H](O)[C@H]1N)OC` (some centres undefined), the CC50 was 24.8 µM in experiment [1]; 25.8 µM in experiment [2]; 27.6 µM in [3]; 19.5 µM in experiment [4]; more than 30 µM in experiment [5]; more than 30 µM in [6].

As to `CCCCCCCCCCCCCCN` [TETRADECYLAMINE], the CC50 in experiment [1] amounted to 24.8 µM; in experiment [2], 18.2 µM; in experiment [3] it was 21.7 µM; in experiment [4], 16.8 µM; in [5], 27.1 µM; in [6], 24.6 µM.
